Source: the NIST ThermoML archive (doi:10.1016/j.jct.2010.05.007)
Numbers after ± are expanded uncertainties.

Experiments:
[1] = molar heat capacity at constant pressure; conditions: 298 K; 101.33 kPa; Liquid; Vacuum adiabatic calorimetry
[2] = Crystal 1; Adiabatic calorimetry
[3] = Molar enthalpy of transition or fusion; conditions: Crystal 1; Adiabatic calorimetry

- molar heat capacity at constant pressure [1]: 310 ± 2.4 J/K/mol
- Triple point temperature [2]: 291.87 ± 0.05 K
- Molar enthalpy of transition or fusion [3]: 4.54 ± 0.0478 kcal/mol
SMILES: CCCCn1cc[n+](C)c1.[I-] [1-butyl-3-methylimidazolium iodide]
